Results as given in paper PMC9088798, “An Approach to Derive Functional Peptide Inhibitors of Transcription Factor Activity” (JACS Au, 2022).
Where no end group is shown, it is not given here.

Tests used:
TRE-mDHFR = test: DHFR activity assay (NADPH turnover at 340 nm), TRE-mDHFR; assay type: biochemical, murine
Description: (§1) (A) Fifteen TRE sites were introduced into the mDHFR gene (2 silent and 13 substitutions) to allow for a cJun-induced transcriptional block. […] Change in absorbance at 340 nm was measured to determine the rate of NADPH turnover by (B) WT-mDHFR and (C) TRE-mDHFR with or without the substrate DHF. […] Specific activity was calculated from the linear initial rate (first 2.5 min for WT-mDHFR, first 10 min for TRE-mDHFR; +NADPH only reaction blank subtracted). Data are averages from triplicate experiments with errors shown as one standard deviation.
(§2) Jupiter Proteo column (4-μm particle size, 90 Å pore size, 250 × 10 mm; Phenomenex) using a water:acetonitrile gradient (0.1% TFA). Peptides without a SUMO tag, were concentrated after Histrap elution and HPLC purified. […]
(§3) or Mtx (1 µM in reaction). Reactions were initiated by the addition of DHF (50 µM in reaction plus a blank reaction with no DHF) and the absorbance at 340 nm of samples was measured using a Varian Cary 50 UV-Vis spectrophotometer. The specific activity (∆OD/minsample― ∆OD/minblank) was calculated using the following equation. Specific activity = 12.3× mg protein Library Construction and TBS Assay: Library inserts were produced using PCR fill-in reactions from synthesised primers (Sigma) with degenerate codons at the desired positions to produce the correct residue options. […]

WT-mDHFR = test: DHFR activity assay (NADPH turnover at 340 nm), WT-mDHFR; assay type: biochemical, murine
Description: as §1, §2, §3

cJun/TRE DNA interaction = molecular target: T1, cJun/TRE DNA interaction (Homo sapiens, UniProt P05412); test: CD TRE DNA peak shift, antagonism of cJun/TRE DNA interaction; assay type: biochemical; settings: cJun 20 μM, TRE DNA 5 μM, DNA peak ~281 nm, Hill equation; three independent experiments, one SD; pH 7.4
T1 construct: The human cJun bZIP domain spans from Arg252 to Leu308; His-SUMO (N, cleaved yes); AS cap (two residues Ala-Ser) (N); GAP cap (three residues Gly-Ala-Pro) (C); made in house; host or cells: E. coli (pET21-His-SUMO plasmid)
T1 sequence (P05412 252-308): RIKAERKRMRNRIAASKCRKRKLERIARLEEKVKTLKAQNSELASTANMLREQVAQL
Description: The binding of cJun to TRE DNA can be observed by monitoring a DNA absorbance peak in the CD spectrum centered at ∼281 nm.[44] […] The addition of cJun (20 μM) to TRE DNA (5 μM) decreases this DNA peak by 55% as the cJun engages its target TRE site and alters the DNA structure (Figure 6A). Subsequent titration of HingeW into this bound cJun/TRE DNA mixture reverses the peak shift, with the peak increasing as DNA is released.
Figure 6 HingeW antagonizes cJun/TRE DNA interaction more effectively than A-FosW. (A) CD spectra showing a shift in the TRE DNA peak at ∼281 nm upon addition of cJun, which is reversed by the titration of HingeW into the sample, as HingeW sequesters the cJun in a nonfunctional heterodimer. […] EMSA showing the (C) unbound TRE DNA band shift upon addition of cJun and the subsequent restoration of the unbound DNA band intensity upon titration of either (D) HingeW or (E) A-FosW. (F). For both CD and EMSA, data was averaged from three independent experiments and the plotted error bars indicate one standard deviation. […]
(§4) µM) alongside ampicillin, kanamycin and chloramphenicol to maintain the required plasmids, and IPTG (1 mM) to induce protein expression. The library transformants were […]
increased to the optimum 4 µM in subsequent passages. […] This allows the occurrence of library members to be monitored as winner sequences are selected for. […]

[1] = test system: cJun bZIP / TRE sites in TRE-mDHFR gene; test: Transcription block survival (TBS) colony counting in E. coli; assay type: cell-based, human cJun, expressed in E. coli; settings: three experimental repeats
Description: Figure 3 Transcription block survival (TBS) assay to derive functionally active cJun inhibitors. (A) Schematic illustrating the design and operation of TBS. (B) Controlled numbers of E. coli expressing the indicated proteins were plated on selective media and growth rates were calculated by counting colony-forming units. […] (2) A small effect on colony numbers is observed when cJun bZIP is additionally expressed. (3) TRE-mDHFR can replace the inhibited ecDHFR with colony count lower than for WT as expected. […] Although (6) cFos LZ and (7) FosW are known cJun-binders, they are unable to effectively dissociate the cJun bZIP from TRE DNA. However, (8) A-FosW and the TBS-derived hit (9) HingeW remove TRE-mDHFR transcriptional blocks to restore cell survival. Bar charts represent averages of three experimental repeats. Errors are shown as one standard deviation. Selected P values from a t-test are indicated (*P ≤ 0.05; **P ≤ 0.01; ****P ≤ 0.0001) with values for all possible comparisons within the bar chart reported in Figure S7. Serial dilutions were used to quantify colony numbers where required. Also shown are representative plate images and schematics to illustrate the effect upon TRE-mDHFR transcription. […]
Library Construction and TBS Assay: Library inserts were produced using PCR fill-in reactions from synthesised primers (Sigma) with degenerate codons at the desired positions to produce the correct residue options. The library was subcloned using SacI and AscI sites into the pET24a plasmid containing A-FosW. The primers used were cJun- […]
-3’ and cJun-Hinge-Lib_R: 5’-
-3’. The library DNA was transformed into NEB 10-beta electrocompetent E. coli cells. The following equation was utilised to determine library […]
coverage by the number of single colonies: where E is the percentage […] of the library missing, m is the number of colonies collected and n is the library size. This […]
covered. Library DNA quality was assessed by sequencing both the DNA pool and a number of single colonies to show degenerate codons in the correct positions in the pool and to show a diversity of library members from single colonies. The pool of library DNA was transformed into BL21 Gold cells already containing pES300d-TRE-mDHFR and […]
as §4
however a lower stringency is used initially before selection is increased in later steps.
Colonies from this first round of selection were pooled and serially grown in liquid culture at starting OD600 of 0.05 and grown at 37°C with shaking at 200 rpm until the OD600 […]
increased to the optimum 4 µM in subsequent passages. Bacteria containing the most effective functional antagonists were expected to produce higher levels of TRE-mDHFR which provides a growth advantage, and these will dominate the culture. At each passage step, a sample of the culture was plated on LB agar (supplemented with antibiotics to maintain plasmids) to select and sequence individual colonies, and a DNA pool was also sequenced. This allows the occurrence of library members to be monitored as winner sequences are selected for. Assay Validation experiments utilised a modified assay methodology whereby overnight cultures from glycerol stocks of the Control Strains (Figure S6) were diluted to OD600=0.5 and 50 µL was plated on a selective M9 minimal […]

CN(Cc1cnc2nc(N)nc(N)c2n1)c1ccc(C(=O)N[C@@H](CCC(=O)O)C(=O)O)cc1 [MTX, methotrexate, reference compound]
inhibition by MTX (TRE-mDHFR): clear inhibition of the reaction | inhibition by MTX (WT-mDHFR): clear inhibition of the reaction

MASLDELQAEIEQLEERNYALRKEIEDLQKQLEKLGAPHHHHHH [FosW, reference compound]
IC50 (cJun/TRE DNA interaction): 119.8 ± 1.1 µM

cFos LZ: human cFos leucine zipper domain, Thr162 to Leu193 [reference compound]
restoration of colony numbers of transcriptionally blocked cells ([1]; TRE-mDHFR + cJun bZIP + peptide vs TRE-mDHFR + cJun bZIP, M9 + TMP + IPTG, P > 0.05): no significant increase in colony numbers

cJun LZ: cJun LZ only construct in which the 25 residue DBD was deleted; Ile277 to Leu308 (IARLEEKVKTLKAQNSELASTANMLREQVAQL; UniProt P05412 277-308, looked up, fragment) [reference compound]
effect of cJun LZ (DBD deleted) on colony formation ([1]; TRE-mDHFR + cJun LZ vs TRE-mDHFR only, P = 0.1): did not affect bacterial colony formation
